# Source: patent US9624235B2, “Compounds and methods for inhibition of AP endonuclease-1/redox factor-1 (HAPE1) activity” (University of Pittsburgh—Of the Commonwealth System of …, priority 2012, dated 2017)
# Like-named read-outs stand apart in the source and are kept apart here.
# Columns and labels:
# T98G cells [1] = experiment: MTT toxicity assay in T98G glioma cells; format: cell-based, human; conditions: FIG. 3(a)
# Procedure: FIGS. 3(a)-(b). […] (b) Toxicity of MeLex (efficiently generates 3-mA) in the absence (o) and presence of 50 nM ( ) or 250 nM (∇) inhibitor 4.
# Toxicity of APE1 Inhibitors in T98G Glioma Cells—A short term (MTT assay) and long term (clonogenic assay) dose response toxicity for the inhibitors was performed in T98G glioma cells in the absence of a DNA alkylating agent. This cell line was selected because it is quite resistant to many DNA alkylating agents; therefore, it represents a good model to test the potential effect of APE1 inhibition on the toxicity of DNA damaging compounds.
# APE-1 [2] = molecular target: T1, APE-1 (Homo sapiens (Human), UniProt P27695); experiment: Displacement of 4 from APE-1 by E3330 (fluorescence); format: binding; conditions: 6 μM 4, 1 μM APE-1
# Procedure: (§1) Fluorescence and UV Spectrometry Binding Studies. The fluorescence spectra were measured at room temperature on a Cary Eclipse fluorescence spectrometer (Varian, Palo Alto, Calif.). The fluorescence properties of 1 and 4 were measured in 10 mM HEPES, 0.5 mM MgCl2, 100 mM KCl, 100 mM NaCl, 2% glycerol, in absence or presence of wild type (unmodified) hairpin DNA (5′-[…]-3′) or THF-modified hairpin DNA (5′-CGAXTTCGCAGGACCGAATTCG-3′) or APE-1 protein. A solution of 0.5 μM of either DNA sequence was titrated against 1-10 μM ethidium bromide (EtBr) to determine saturation of EtBr by fluorescence (530 nm excitation with 610 nm emission) and the subsequent displacement of EtBr (4 μM) by 1-20 μM 1 or 4 was also assayed. The APE protein-inhibitor binding fluorescence was assayed by titrating 0.1-20 μM of 4 against 1 μM of APE-1 protein.
# Interaction of Inhibitors with APE-1 Protein. To establish whether there is a direct interaction between an inhibitor and APE-1, the fluorescence spectra of 4 was determined in the absence and presence of increasing amounts of the protein.
# T98G cells [3] = experiment: Short term (72 h) MTS cytotoxicity assay; format: cell-based, human; conditions: 72 h MTS assay
# Procedure: (§2) Cytotoxic Effects of APE-1 Inhibitors on Cultured Human Glioblastoma (T98G) Cells. Human glioblastoma cells (T98G) were maintained in growth medium as described above. […] The cells were allowed to attach and grow for 24 h, and then treated with serial dilutions of the drug for 72 h. After treatment, viable cells were measured by an MTS assay using the CellTiter 96 AQueous kit (Promega) as per manufacturer's instructions. […] The cells were allowed to attach and grow for 24 h and treated with serial dilutions of the drug for 240 h. After treatment, viable cells were measured using the CyQUANT cell proliferation assay kit (Invitrogen) as per manufacturer's instructions.
# (§3) Toxicity. It was assumed that inhibition of APE-1 activity would be lead to toxicity since genetic deletion of the protein is lethal to cells. […] The toxicities were also determined in combination with the DNA minor groove methylating agent, MeLex. MeLex efficiently and selectively generates N3-methyladenine, which is converted into an abasic site by a BER glycosylase and/or hydrolytic depurination. The T98G cell line is relatively resistant to DNA damaging anticancer agents due to expression of multiple drug resistance proteins and O^6-alkylguanine-DNA alkyltransferase. […] A goal of the development of APE-1 inhibitors is to determine if they can be used to enhance the activity of DNA alkylating agents.
# T98G cells [4] = experiment: Long term (10-day) CyQUANT cytotoxicity assay; format: cell-based, human; conditions: for LD10 concentration: long term assay
# Procedure: as §2, §3
# T98G cells [5] = experiment: Potentiation of MeLex cytotoxicity, short term (72 h) MTS assay; format: cell-based, human; conditions: 72 h MTS assay
# Procedure: (§4) Cytotoxic Potentiation of Various DNA Damaging Agents. T98G cells maintained in growth medium were resuspended in fresh growth medium and seeded into 96-well plates at 2000 cells/well (short term cytotoxicity) or 100 cells/well (long term cytotoxicity) as described in the previous section. After 24 h, the cells were treated with serial dilutions of various DNA damaging drugs in absence or presence of APE-1 inhibitors. At the end of the treatment period, cell survival was assayed using CellTiter 96 AQueous or CyQUANT kits for the short- and long-term studies respectively.
# as §3
# T98G cells [6] = experiment: Potentiation of MeLex cytotoxicity, long term (10 d) CyQUANT assay; format: cell-based, human
# Procedure: as §4, §3
# [7] = system: aldehyde reactive sites in genomic DNA from T98G cells; format: cell-based, human; conditions: for effect on ARS: 0.25 μM compound alone
# Procedure: Quantification of Abasic Sites. T98G cells maintained in growth medium, were harvested by Trypsin-EDTA treatment, resuspended in fresh growth medium at a density of 2.5×10^5 cells mL^−1, and 2 mL (5×10^5 cells) of this suspension was seeded into the wells of a sterile 6-well tissue culture plate. Cells were allowed to grow for 24 h, treated with the various compounds for different time points and/or at different concentrations. At the end of each treatment, adherent cells were harvested by trypsin-EDTA treatment and pooled with live and dead cells in culture supernatant. Pooled cells in suspension were pelleted by centrifugation, washed with 1×PBS and genomic DNA was isolated using the DNAzol reagent (Invitrogen). DNA in solution was quantified by UV absorbance (λ260 nm) using a Synergy H1 multiwell plate reader (BioTek, Winooski, Vt.). Abasic sites in purified DNA were then reacted with the biotin-conjugated aldehyde reactive probe (ARP), immobilized onto 96-well ELISA plates, and detected using horseradish peroxidase (HRP)-conjugated streptavidin using a colorimetric substrate as per manufacturer's instructions (Dojindo Molecular Technologies, Rockville, Md.).
# The biotin tagged ARS are quantified using an avidin-biotin assay, followed by colorimetric detection with horseradish peroxidase conjugated to avidin.
# [8] = system: HEYC-2 ovarian tumor cells; conditions: read-out: IC50 for cell growth; cited from earlier work
# [9] = system: SKOV-3X ovarian tumor cells; conditions: read-out: IC50 for cell growth; cited from earlier work
# APE-1 [10] = molecular target: T1, APE-1; experiment: Molecular beacon assay for APE-1 endonuclease inhibition; format: biochemical; conditions: molecular beacon assay, endonuclease activity; read-out: Ki APE-1 endonuclease inhibition
# Text: Screening Assays for APE1 Inhibition—The initial screen was designed to look at the effect of potential inhibitors on APE1 repair kinetics. The approach can be used as a high throughput screen by choosing a specific timepoint to monitor. The screen utilizes a molecular beacon with a tetrahydrofuran (THF) abasic site within the stem region of a DNA hairpin that has a fluorophore on the 5′-terminus and a quencher on the 3′-terminus (FIG. 2a). […] An example of the molecular beacon screen and the excision assay are shown in FIGS. 2b,c and 2d, respectively.
# Molecular Beacon Assay for Screening of APE-1 Inhibitors. A fluorescence-based molecular beacon assay to measure APE-1 protein activity and inhibition was performed as described previously with some modifications. Tang et al. Neuro Oncol. 13, 471-486 (2011) APE-1 (2 nM) in 10 mM HEPES (pH 7.8) 0.5 mM MgCl, 100 mM NaCl, 100 mM KCl, 0.0005% (w/v) BSA, was incubated with 20 nM 5′-(F)-CGACTXTTGAATTGACACGCCATGTCGATCAATTCAATAGTCG-(D)-3′ [X=tetrahydrofuran (THF) abasic site modification; F, 6-carboxyfluorescein (6-FAM); and D, DABCYL] that forms a hairpin with a 15 base pair stem and a 13 base loop. The THF modification is a known substrate for APE-1 excision. APE-1 mediated cleavage of the phosphodiester backbone at the THF-abasic site led to release of the 5′ 6-FAM (fluorophore) containing pentanucleotide, disrupting the Förster Resonance Energy Transfer (FRET) mediated quenching of the 6-FAM by DABCYL in the native hairpin oligomer. Since the signal was generated by continuous liberation of the fluorophore-labeled excision fragment, progress of this reaction could be monitored in real-time using a Cary Eclipse fluorescence spectrometer (Varian, Palo Alto, Calif.) or a Synergy H1 multi-well plate reader (BioTek, Winooski, Vt.). Reactions were optimized to yield ˜90% substrate turnover in 10 min, and fluorescence intensities measured every 12 s at 495 nm excitation and 520 nm emission. Data from the first 1-3 min of the assays (linear phase) were used to determine rate of substrate turnover (V0). The Michaelis constant (KM) was deduced experimentally, by incubating 2 nM APE-1 protein with 2-500 nM hairpin DNA substrate and measuring V0 —the experimentally observed V0 were analyzed as a function of substrate concentration [S] via non-linear regression using Prism (v.4; GraphPad Software, Inc., La Jolla, Calif.) and the KM was calculated as per the algorithm in the software package. To assay inhibition, 2 nM APE-1 protein was pre-incubated with 0.05-10.00 μM of the candidate inhibitors at 25° C. for 60 min, before initiating the excision assay by addition of hairpin DNA substrate. V0 was calculated at various concentrations of inhibitors and represented as inverse function of increasing inhibitor concentration [I]. […] All assays were carried out in three independent sets to obtain mean data and standard error of mean.
# (§5) Screening for APE-1 Inhibitors. […] In this assay, the DNA hairpin substrate has a 6-FAM fluorophore on the 5′-terminus, a DABACYL fluorescence quencher on the 3′-terminus and a THF abasic site located 6 base pairs from the 5′-terminus in the stem region (FIG. 6). APE-1 activity is monitored as an increase in fluorescence due to the release of the 5′-(6-FAM)-GCACT fragment as a function of time. […] In this assay, substrate turnover was calculated from relative intensities of cleaved vs. intact oligomers and correlated with inhibitor concentration.
# APE-1 [11] = molecular target: T1, APE-1; experiment: Gel-based excision assay for APE-1 inhibitors; format: biochemical; conditions: APE-1 cleaved fragment vs. full length DNA substrate
# Procedure: as §5
# [12] = molecular target: APE-1 activity in T98G cell nuclear lysates (Homo sapiens (Human), UniProt P27695); experiment: Molecular beacon assay in T98G cell nuclear extracts; format: biochemical
# Procedure: Isolation and Assay of APE-1 Protein from Nuclear Extracts of Glioma Cells. Human glioblastoma cells (T98G) were maintained in growth medium, i.e., Eagle's Minimum Essential Medium (EMEM) with 10% fetal bovine serum (FBS), […] gentamycin, 1×MEM non-essential amino acids and 1 mM sodium pyruvate. Cells were harvested by Trypsin-EDTA treatment, washed with 1×PBS and nuclear proteins isolated using the CelLytic NuCLEAR Extraction kit (Sigma-Aldrich) as per manufacturer's instructions. Isolated nuclear proteins were estimated colorimetrically (BCA protein assay) and stored at −80° C. (long term) or at −20° C. during regular use. To assay APE-1 activity in T98G cells, nuclear extracts were serially diluted in 10 mM HEPES, 50 mM KCl, 1 mM DTT, 20% (v/v) glycerol and the activities measured via the molecular beacon assay (as described above). […] EC2 nM of nuclear extracts was incubated with 2 to 500 nM hairpin DNA substrate and the V0 measured for each value of [S]. Finally, the apparent KM* was deduced using the software algorithm in Prism (as described previously), and the KM* was used to determine the apparent Ki*. Inhibition of EC2 nM APE-1 activity by the inhibitors was assayed via the molecular beacon assay (described above).
# Inhibition of APE-1 Activity in Nuclear Lysates. The ability of 1-5 and 8 to block APE-1 endonuclease activity in a complex mixture of proteins from T98G cell nuclear lysates was tested using the molecular beacon assay. The APE-1 activity in the lysates was standardized to give ˜90% turnover of 25 nM substrate in 10 min.
# THF modified hairpin DNA = experiment: EtBr fluorescence titration with hairpin DNA; format: binding
# Procedure: as §1, with “(5′-[…]-3′)” for “(5′-CGAXTTCGCAGGACCGAATTCG-3′)”
# (§6) Interaction of Inhibitors with DNA. A potential mechanism by which compounds can block APE-1 activity involves the interaction with the DNA substrate by intercalation. Such binding to DNA could sterically reduce the accessibility of the protein to the abasic site substrate. […] To further probe the potential role of intercalation, the effect of EtBr on the fluorescence of 1 and 4 were determined. […] The small changes in the fluorescence of 4 with both DNAs indicate little discrimination for the THF lesion.
# unmodified hairpin DNA = experiment: EtBr fluorescence titration with hairpin DNA; format: binding
# Procedure: as §1, with “(5′-[…]-3′)” for “(5′-CGAXTTCGCAGGACCGAATTCG-3′)”
# as §6
# double-stranded DNA = conditions: cited from earlier work
# VERA kidney cell line = conditions: read-out: IC50 for the toxicity; cited from earlier work
# [13] = 80 μM MeLex + 0.25 μM compound, after 6 h
# T1 sequence (P27695 whole entry): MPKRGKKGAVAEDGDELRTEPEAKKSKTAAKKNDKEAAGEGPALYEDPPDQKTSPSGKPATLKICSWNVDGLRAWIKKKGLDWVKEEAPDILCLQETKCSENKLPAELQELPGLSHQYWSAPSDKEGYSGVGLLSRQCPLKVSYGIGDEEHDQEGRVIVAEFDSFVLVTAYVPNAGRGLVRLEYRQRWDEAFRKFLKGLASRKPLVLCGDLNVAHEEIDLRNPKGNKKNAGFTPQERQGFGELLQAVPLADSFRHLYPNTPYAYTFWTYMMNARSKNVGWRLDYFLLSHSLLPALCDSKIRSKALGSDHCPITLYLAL
# APE-1 activity in T98G cell nuclear lysates, sequence (P27695 whole entry, stated change not applied): as the sequence (P27695 whole entry) above
SMILES,LD10 concentration (T98G cells [3]) [µM],LD10 concentration (T98G cells [4]) [µM],LD50 of MeLex in the presence of LD10 concentration of inhibitor (T98G cells [5]) [µM],effect on ARS [7],"level of ARS in combination with MeLex [7, 13]",Ki (APE-1 [10]) [nM],IC50 (APE-1 [11]) [nM],Ki [12] [nM],also measured
CCn1c2ccccc2c2cc(/C=N/Nc3cc(C)nc4cc5c(cc34)OCO5)ccc21 [Inhibitor-1],–,–,–,–,–,–,–,–,LD50 (T98G cells [1]): 960 nM
CCCCCCCCC/C(=C\C1=C(C)C(=O)C(OC)=C(OC)C1=O)C(=O)O [Compound E3330],6.9,14.80,128,returned to control levels by 18 h,dropped off,–,–,–,E3330 concentration for approximately 50% decrease in the fluorescence of 4 (APE-1 [2]): approximately 12 μM; potentiating the toxicity of MeLex (T98G cells [6]; LD10 concentration): little or no contribution; IC50 [8]: ~35000 nM; IC50 [9]: ~35000 nM
C/C(=N\Nc1cc(C)nc2cc3c(cc12)OCO3)c1cn(C)n(-c2ccccc2)c1=O [Compound 1],2.20,0.17,54,–,–,180,4400,450,"LD50 of MeLex in the presence of LD10 concentration of inhibitor (T98G cells [6]): 2.0 µM; level of ARS in combination with MeLex ([7]; 80 μM MeLex + 0.25 μM inhibitor, through at least 12 h): 50 sites/10^5 nucleotides"
"CC[n+]1c(-c2ccccc2)c2cc(N)ccc2c2ccc(N)cc21 [EtBr, ethidium bromide]",–,–,–,no effect,dropped off,1800,–,–,Kd (THF modified hairpin DNA): 1800 nM; Kd (unmodified hairpin DNA): 1600 nM; Kd (double-stranded DNA): ~1000 nM
Cc1cc(N/N=C/c2ccc3c(c2)OCO3)c2cc3c(cc2n1)OCO3 [Compound 3],–,–,–,–,–,190,2900,280,"IC50 (T98G cells [4]; Homo sapiens, T98G, assay not stated, read-out: toxicity observed in the glioma T98G line): 540 nM; IC50 (VERA kidney cell line): 630 nM"
